In one experiment the target is Axl kinase (Homo sapiens (Human), UniProt P30530). Kind of experiment: Axl kinase assay (AlphaScreen). It is filed as biochemical. The following applies: activity level class.
A further experiment concerns the target Met kinase (Homo sapiens, UniProt P08581). Kind of experiment: Met kinase assay (AlphaScreen). It is filed as biochemical.
Experiment [1] concerns Gas6 ligand induced AKT phosphorylation. The experiment in a line: Gas6 ligand induced AKT phosphorylation, western blotting in H1299 NSCLC cells. The following applies: Homo sapiens, NCI-H1299, at 100 nM treatment, 100 ng/mL Gas6, read-out: inhibition activity against Gas6 ligand induced AKT phosphorylation. It is filed as cell-based.
A further experiment addresses Mer kinase (Homo sapiens (Human), UniProt Q12866). The experiment in a line: Mer kinase assay (AlphaScreen). The conditions noted are these: read-out: Mer kinase IC50; activity level class.
Setting [2] is: activity level class, read-out: Met kinase IC50.

Where two headings read alike, the source gives them in different places. Some results are limits rather than exact numbers.

With `COCCOc1nc(Nc2ccc(CN3CCN(C)CC3)cc2)nc2[nH]cc(-c3ccc(NC(=O)c4cc(C)n(C)n4)cc3)c12` [Compound 76, N-(4-(4-(2-methoxyethoxy)-2-((4-((4-methylpiperazin-1-yl)methyl)phenyl)amino)-7H-pyrrolo[2,3-d]pyrimidin-5-yl)phenyl)-1,5-dimethyl-7H-pyrazole-3-carboxamide], the IC50 was < 30 nM at Axl kinase, > 1000 nM on Met kinase (setting [2]) and > 1000 nM on Mer kinase. The inhibition at 0.1 µM in experiment [1] is > 50%.
For `COCCOc1nc(Nc2ccc(CN3CCN(C)CC3)cc2)nc2[nH]cc(-c3ccc(OCc4ccncc4)cc3F)c12` [Compound 93, 5-(2-fluoro-4-(pyridin-4-ylmethoxy)phenyl)-4-(2-methoxyethoxy)-N-(4-((4-methylpiperazin-1-yl)methyl)phenyl)-7H-pyrrolo[2,3-d]pyrimidin-2-amine], the half-maximal inhibitory concentration (IC50) is < 30 nM against Axl kinase, > 1000 nM at Met kinase (setting [2]) and > 1000 nM on Mer kinase. In addition, the inhibition at 0.1 µM in experiment [1] is > 50%.
On to `Cc1nc2ccc(-c3c[nH]c4nc(Nc5ccc(CN6CCN(C)CC6)cc5)nc(OCC5CCCO5)c34)cc2o1` (stereo not shown) [Compound 67, 5-(2-methylbenzo[d]oxazol-6-yl)-N-(4-((4-methylpiperazin-1-yl)methyl)phenyl)-4-((tetrahydrofuran-2-yl)methoxy)-7H-pyrrolo [2,3-d]pyrimidin-2-amine], for which the IC50 against Axl kinase was < 30 nM; at Met kinase (setting [2]) it was > 1000 nM; on Mer kinase it was > 1000 nM. In addition, the inhibition at 0.1 µM in experiment [1] was > 50%.
On to `COCCOc1nc(Nc2ccc(CN3CCN(C)CC3)cc2)nc2[nH]cc(-c3ccc(OCc4cccnc4)cc3F)c12` [Compound 95, 5-(2-fluoro-4-(pyridin-3-ylmethoxy)phenyl)-4-(2-methoxyethoxy)-N-(4-((4-methylpiperazin-1-yl)methyl)phenyl)-7H-pyrrolo[2,3-d]pyrimidin-2-amine], for which the IC50 at Axl kinase is < 30 nM; on Met kinase (setting [2]) it was > 1000 nM; on Mer kinase, > 1000 nM.
With `COCCOc1nc(Nc2ccc(CN3CCN(C)CC3)cc2)nc2[nH]cc(-c3ccc(S(=O)(=O)N4CCC4)cc3)c12` [Compound 94, 5-(4-(azetidin-1-ylsulfonyl)phenyl)-4-(2-methoxyethoxy)-N-(4-((4-methylpiperazin-1-yl)methyl)phenyl)-7H-pyrrolo[2,3-d]pyrimidin-2-amine], the IC50 on Axl kinase is < 30 nM; on Met kinase (setting [2]), > 1000 nM; at Mer kinase, > 1000 nM.
On to `COCCOc1nc(Nc2ccc(CN3CCC(C)CC3)cc2)nc2[nH]cc(-c3ccc(OCc4ccccn4)cc3F)c12` [Compound 109, 5-(2-fluoro-4-(pyridin-2-ylmethoxy)phenyl)-4-(2-methoxyethoxy)-N-(4-((4-methylpiperidin-1-yl)methyl)phenyl)-7H-pyrrolo[2,3-d]pyrimidin-2-amine], for which the IC50 is < 30 nM against Axl kinase, 400 to 1000 nM on Met kinase and < 30 nM on Mer kinase. Besides, the inhibition at 0.1 µM in experiment [1] is > 50%.
As to `COCCOc1nc(Nc2ccc(CN3CCN(C)CC3)cc2)nc2[nH]cc(-c3ccc(O)cc3F)c12` [Compound 96, 3-fluoro-4-(4-(2-methoxyethoxy)-2-((4-((4-methylpiperazin-1-yl)methyl)phenyl)amino)-7H-pyrrolo[2,3-d]pyrimidin-5-yl)phenol], the values for the IC50 against Axl kinase, at Met kinase and at Mer kinase were < 30 nM, 100 to 400 nM and < 30 nM, respectively.
As to `COc1nc(Nc2ccc(CN3CCC(C)CC3)cc2)nc2[nH]cc(-c3ccc(NS(=O)(=O)c4cc(F)ccc4F)cc3)c12` [Compound 2, 2,5-difluoro-N-(4-(4-methoxy-2-((4-((4-methylpiperidin-1-yl)methyl)phenyl)amino)-7H-pyrrolo[2,3-d]pyrimidin-5-yl)phenyl)benzene-sulfonamide], the IC50 is < 30 nM at Axl kinase, 100 to 400 nM at Met kinase and < 30 nM at Mer kinase.
`COCCOc1nc(Nc2ccc(CN3CCN(C)CC3)cc2)nc2[nH]cc(-c3ccc(OCc4cncc(OC)c4)cc3F)c12` [Compound 100, 5-(2-fluoro-4-((5-methoxypyridin-3-yl)methoxy)phenyl)-4-(2-methoxyethoxy)-N-(4-((4-methylpiperazin-1-yl)methyl)phenyl)-7H-pyrrolo[2,3-d]pyrimidin-2-amine]: the values for the half-inhibitory concentration (IC50) on Axl kinase, on Met kinase (setting [2]) and at Mer kinase were < 30 nM, > 1000 nM and > 1000 nM, respectively.
